In one test the test system is MCF10A cells. The experiment in a line: TGFβ1-induced EMT in MCF10A cells, immunoblotting. Type of test: cell-based, human. The note with it: TGFβ1-treated MCF10A, concomitant SB203580, 3 days. How it is done: To ascertain whether inhibiting p38 impedes the initiation of EMT, two dynamic models of EMT induction were utilized. First, MCF10A immortalized human mammary epithelial cells were treated with TGFβ1 which elicits EMT. […] Second, an inducible EMT system was used wherein a fusion protein, comprising the EMT-inducing transcription factors Snail or Twist and the estrogen-binding domain of the estrogen receptor (ER), is stably expressed in epithelial HMLE cells (HMLE-Snail-ER, HMLE-Twist-ER). Addition of the ER-ligand tamoxifen (4-OHT) promotes nuclear translocation of the Snail-ER and Twist-ER proteins and elicits EMT. […] Similarly, p38 shRNA abolished the capacity of HMLE-Twist-ER cells to undergo EMT (FIG. 4E, compare lanes 4 to 8) and to form spheres (FIG. 16F) in response to 4-OHT treatment.
Immortalized human mammary epithelial (HMLE) cells expressing empty vector (pWZL), Snail, Twist, Goosecoid (GSC), or an activated form of TGFβ1, V12H-Ras-transformed HMLE (HMLER) and HMLER-FOXC2 cells were maintained as previously described (Elenbaas et al., 2001) For 4-hydroxy-tamoxifen (4-OHT) treatment, HMLE-Snail-ER or HMLE-Twist-ER cells were exposed to 20 nM 4-OHT for the indicated number of days. MCF7, MDA-MB-231 and SUM159 human breast cancer cells and the 4T1 mouse mammary carcinoma cells were cultured as described. […]
(In general: A western blot detects proteins with antibodies after separation by electrophoresis.)

The test system of test [1] is HMLE-Snail, HMLE-Twist, MDA-MB-231 and SUM159 cells. As to the kind of experiment: EMT marker immunoblotting in mesenchymal mammary cells. Type of test: cell-based, human. The note with it: relative to vehicle-treated cells. The protocol: It was next ascertained whether p38 inhibition compromises the maintenance of the established EMT phenotype.
Immunoblotting and immunofluorescence (Mani et al., 2008) were performed as previously described. Primary antibodies were as follows: β-actin (Sigma, St Louis, Mo., USA; A3853), mouse anti-human FOXC2 (Dr. Naoyuki Miura, Hamamatsu University School of Medicine, Japan), goat polyclonal anti-FOXC2 (Santa Cruz Biotechnology, Dallas, Tex., USA; sc-21397), p-p38 (Cell Signaling, Danvers, Mass., USA; 4511), p38 (Cell Signaling; 9211), E-cadherin (BD Biosciences, San Jose, Calif., USA; 61081), fibronectin (BD Biosciences; 610077), vimentin (Novus Biologicals, Littleton, Colo., USA; NB200-623), ZEB1 (Novus Biologicals; NBP1-05987), and HA (Covance, Princeton, N.J., USA; MMS-101P).

The subject of test [2] is HMLE-Snail and HMLE-Twist cells. The experiment in a line: Invadopodia formation, degradation of FITC-conjugated gelatin. Type of test: cell-based, human. As to conditions: within 16 h, vs vehicle-treated cells. The protocol:
FIGS. 15A-15L: p38 inhibition compromises the acquisition and maintenance of EMT and stem cell properties in vitro. […] Cells were harvested and the corresponding lysates were analyzed by immunoblotting for FOXC2, E-cadherin and mesenchymal markers. β-actin was used as a loading control. […] Cells were harvested at the indicated timepoints and the corresponding lysates were analyzed by immunoblotting for FOXC2, E-cadherin and mesenchymal markers. β-actin was used as a loading control. […] One thousand cells were seeded per well in ultra-low attachment plates and cultured for 7-10 days. Spheres with a diameter greater than 75 μm were counted. The data are reported as the number of spheres formed/1000 seeded cells±SEM. […] Data are presented as mean±SEM. […] The corresponding lysates were analyzed by immunoblotting for FOXC2, E-cadherin and mesenchymal markers. β-actin was used as a loading control. (F) The sphere-forming efficiency of 4-OHT-treated HMLE-Twist-ER cells, transduced with control shRNA (shControl) or p38 shRNA (shp38), was determined. […] (H) The sphere-forming efficiency of the indicated cells was determined in the presence of vehicle or SB203580. […] (J) The relative wound closure by the indicated cells, treated with vehicle or SB203580, was measured by image analysis and represented in a graphical format. […] Degradation of FITC-gelatin was quantified by image analysis. n=150 cells/sample. […]

For the next test, the system named is DU145 cells. The experiment in a line: Morphology and marker expression (qRTPCR, immunoblotting, IF) in DU145 cells. Type of test: cell-based, human. The protocol: Cell lines: Authenticated LNCaP, DU145, and PC3 cells were procured from ATCC and cultured in RPMI with 10% fetal bovine serum (FBS) with penicillin/streptomycin. Cells overexpressing EMT transcription factors and shRNA were also cultured in the same media. HEK293T cells were cultured in DMEM with 10% FBS and penicillin/streptomycin. All cell lines used for this study were recently confirmed negative for mycoplasma contamination.
Immunoblotting, Immunofluorescence, RTPCR, wound healing- and tumorsphere assays were performed as previously described (Sarkar et al., 2015). Cell viability (MTS) was assessed using the CellTiter96 Aqueous One-Solution Cell Proliferation Assay kit (Promega).

The test system of another test is BCR-ABL+ mouse ALL cells. The note with it: MSC co-culture.

Protocol for BCR-ABL+ mouse ALL cells: Leukemic cell apoptosis was analyzed by flow cytometry using BD LSRFortessa or Accuri C6 flow cytometer (BD Biosciences) after the cells were stained with Annexin V (BD Biosciences, San Jose, Calif.). Data were analyzed by FlowJo software (Ashland, Oreg.).

Turning to `C[S+]([O-])c1ccc(-c2nc(-c3ccc(F)cc3)c(-c3ccncc3)[nH]2)cc1` (stereo not drawn) [SB203580, 4-(4-Fluorophenyl)-2-(4-methylsulfinylphenyl)-5-(4-pyridyl) 1H-imidazole], the “FOXC2, mesenchymal and epithelial markers” value in the test with MCF10A cells was “suppresses the upregulation of FOXC2 and mesenchymal markers (fibronectin, vimentin) and prevents downregulation of the epithelial marker E-cadherin”. Also, in test [1], the “Expression of EMT markers” value is given as “altered the expression of EMT markers”. Further, in test [2], the “Degradation of underlying extracellular matrix (FITC-gelatin)” value is “failed to do so to the same degree”. Besides, in the test on DU145 cells (DU145, 5 μM, 7 days), the “AR and PSA expression” value is “restoration of AR and PSA expression”; the “Expression of Bmi1 and Sox2” value was “significant reduction”; the FOXC2 expression result is “dramatic loss in FOXC2 expression”; the Morphology / phenotype result was “acquisition of an epithelial phenotype”. The “Expression of AR, PSA and E-cadherin over time (qRTPCR)” value with DU145 cells (DU145, days 0-7 after treatment) was “consistently increased right after 48 hours, but reached highest levels at day 7”. Also, the “Apoptosis of leukemic cells” value in the test with BCR-ABL+ mouse ALL cells is “did not affect proliferation or apoptosis of leukemic cells”.

These data come from patent US20190125735A1, “INHIBITION OF P38 MAPK FOR THE TREATMENT OF CANCER” (Board of Regents, The University of Texas System, priority 2015, published 2019).
